Data published in patent US20030134883A1, “14-Methyl-epothilones” (priority 2001, published 2003).

What was measured:
[1] = system: NCI-ADR cancer cell line; assay: Cytotoxicity in cell culture (FIG. 3), NCI-ADR; assay type: cell-based; conditions: NCI-ADR cells, in vitro
[2] = system: MCF-7 cancer cell line; assay: Cytotoxicity in cell culture (FIG. 3), MCF-7; assay type: cell-based; conditions: MCF-7 cells, in vitro
[3] = system: SF cancer cell line; assay: Cytotoxicity in cell culture (FIG. 3), SF; assay type: cell-based; conditions: SF cells, in vitro
[4] = system: H460 cancer cell line; assay: Cytotoxicity in cell culture (FIG. 3), H460; assay type: cell-based; conditions: H460 cells, in vitro
[5] = Body weight of treated nude mice with MX-1 xenograft (FIG. 2); assay type: in vivo; conditions: infusion twice daily for five days; during the course of treatment
[6] = system: MX-1 tumor xenograft; assay: MX-1 tumor xenograft in nude mice, tumor size (FIG. 1); assay type: in vivo; conditions: infusion twice daily for five days; compared with control (pharmaceutical carrier only)

Compound	cytotoxicity [1]	cytotoxicity [2]	cytotoxicity [3]	cytotoxicity [4]	body weight [5]	rate of tumor growth as measured by the tumor size [6]
C/C(=C\c1csc(C)n1)[C@H]1OC(=O)C[C@H](O)C(C)(C)C(=O)[C@H](C)[C@@H](O)[C@@H](C)CCC[C@@]2(C)O[C@H]2[C@@H]1C [(14R)-14-methylepothilone B]	cytotoxic	cytotoxic	cytotoxic	cytotoxic		
C/C1=C/[C@@H](C)[C@@H](/C(C)=C/c2csc(C)n2)OC(=O)C[C@H](O)C(C)(C)C(=O)[C@H](C)[C@@H](O)[C@@H](C)CCC1 [(14R)-14-methylepothilone D]	essentially inactive	essentially inactive	essentially inactive	essentially inactive		
C/C(=C\c1csc(C)n1)[C@H]1OC(=O)C[C@H](O)C(C)(C)C(=O)[C@H](C)[C@@H](O)[C@@H](C)CCC[C@@]2(C)O[C@H]2[C@H]1C [(14S)-14-methylepothilone B]	essentially inactive	essentially inactive	essentially inactive	essentially inactive		
C/C1=C/[C@H](C)[C@@H](/C(C)=C/c2csc(C)n2)OC(=O)C[C@H](O)C(C)(C)C(=O)[C@H](C)[C@@H](O)[C@@H](C)CCC1 [(14S)-14-methylepothilone D]	cytotoxic	cytotoxic	cytotoxic	cytotoxic	slight decrease in body weight	decrease in the rate of tumor growth
